The target in test [1] is T1, human recombinant HDAC1 (Homo sapiens, UniProt Q13547).
T1 construct: purchased Enzo Life Sciences, Inc. BML-SE456
As to the kind of experiment: HDAC enzyme activity inhibition assay (HDAC Fluorimetric Drug Discovery Kit), HDAC1. Conditions: human recombinant HDAC1, Fluor de Lys-SIRT1 substrate, 30° C. 60 minutes. Type of test: biochemical. The method, boiled down:
(§1)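 The preceding reaction ran 60 min at 30 °C with 0.3 μg recombinant human enzyme, HDAC1 or HDAC6 under an identical protocol, and 10 μM Fluor de Lys-SIRT1 substrate, across 5-fold diluted compound.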

For test [2], the target named is T2, human recombinant HDAC6 (Homo sapiens, UniProt Q9UBN7).
T2 construct: purchased Calbiochem Inc. 382180
T2 sequence (Q9UBN7 1-1215): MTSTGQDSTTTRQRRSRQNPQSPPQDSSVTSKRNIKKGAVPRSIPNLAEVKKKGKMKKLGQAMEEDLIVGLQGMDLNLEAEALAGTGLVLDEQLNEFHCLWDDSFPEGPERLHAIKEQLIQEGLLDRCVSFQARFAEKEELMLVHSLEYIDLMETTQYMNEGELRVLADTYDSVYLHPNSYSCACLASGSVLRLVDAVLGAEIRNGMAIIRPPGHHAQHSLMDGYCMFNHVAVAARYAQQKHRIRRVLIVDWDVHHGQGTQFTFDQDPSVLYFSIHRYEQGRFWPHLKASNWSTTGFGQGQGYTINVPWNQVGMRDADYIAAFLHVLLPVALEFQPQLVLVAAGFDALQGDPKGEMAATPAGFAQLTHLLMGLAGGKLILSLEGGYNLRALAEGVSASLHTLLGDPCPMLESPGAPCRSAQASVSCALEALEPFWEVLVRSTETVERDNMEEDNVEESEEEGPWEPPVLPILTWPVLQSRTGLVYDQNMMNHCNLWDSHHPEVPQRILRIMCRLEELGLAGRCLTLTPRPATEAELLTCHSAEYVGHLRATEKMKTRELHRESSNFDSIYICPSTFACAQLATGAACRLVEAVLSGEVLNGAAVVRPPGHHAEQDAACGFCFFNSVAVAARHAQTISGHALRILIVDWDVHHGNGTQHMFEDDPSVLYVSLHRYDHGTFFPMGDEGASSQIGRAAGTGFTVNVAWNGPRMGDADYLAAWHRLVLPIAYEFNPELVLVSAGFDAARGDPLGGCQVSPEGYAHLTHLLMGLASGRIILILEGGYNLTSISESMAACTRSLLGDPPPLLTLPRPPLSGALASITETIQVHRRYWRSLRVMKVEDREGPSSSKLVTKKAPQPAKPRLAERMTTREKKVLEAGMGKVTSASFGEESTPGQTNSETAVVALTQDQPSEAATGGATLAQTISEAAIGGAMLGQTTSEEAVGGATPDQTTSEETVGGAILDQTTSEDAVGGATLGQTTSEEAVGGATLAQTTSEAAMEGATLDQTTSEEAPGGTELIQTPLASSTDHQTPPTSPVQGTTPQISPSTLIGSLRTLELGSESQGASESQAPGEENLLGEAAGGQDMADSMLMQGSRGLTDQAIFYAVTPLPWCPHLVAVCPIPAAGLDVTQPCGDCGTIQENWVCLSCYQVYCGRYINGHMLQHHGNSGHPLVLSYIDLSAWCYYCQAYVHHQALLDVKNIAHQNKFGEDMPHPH
Briefly: HDAC enzyme activity inhibition assay (HDAC Fluorimetric Drug Discovery Kit), HDAC6. To be noted: for HDAC6 selectivity (fold): HDAC1 vs HDAC6; for IC50: human recombinant HDAC6, same protocol as HDAC1. Type of test: biochemical. The method, boiled down:
as §1

Where only a bound is given, the exact number is not on record here.

The values that follow come from US20230278995A1, “1,3,4-OXADIAZOLE DERIVATIVE COMPOUNDS AS HISTONE DEACETYLASE 6 INHIBITOR, AND THE PHARMACEUTICAL COMPOSITION COMPRISING THE SAME” (CHONG KUN DANG PHARMACEUTICAL CORP., priority 2020, published 2023).

T1 sequence (Q13547 whole entry): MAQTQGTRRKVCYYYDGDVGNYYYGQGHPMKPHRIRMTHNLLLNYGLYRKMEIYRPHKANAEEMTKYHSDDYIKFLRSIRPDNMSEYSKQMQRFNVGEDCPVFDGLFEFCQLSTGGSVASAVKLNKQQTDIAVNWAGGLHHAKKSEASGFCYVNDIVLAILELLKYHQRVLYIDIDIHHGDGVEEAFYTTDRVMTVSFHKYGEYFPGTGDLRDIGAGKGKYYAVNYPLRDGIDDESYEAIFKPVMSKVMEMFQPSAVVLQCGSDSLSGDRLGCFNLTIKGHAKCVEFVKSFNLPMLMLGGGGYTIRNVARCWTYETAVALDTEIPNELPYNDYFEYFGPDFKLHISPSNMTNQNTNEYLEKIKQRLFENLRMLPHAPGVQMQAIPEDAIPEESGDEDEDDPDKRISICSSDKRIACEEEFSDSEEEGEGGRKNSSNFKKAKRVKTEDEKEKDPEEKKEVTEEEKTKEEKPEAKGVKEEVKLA

One may read the IC50 as the concentration needed to halve the response being measured. Turning to `CCCN1CC(N2CC(F)(C(=O)N(Cc3ccc(-c4nnc(C(F)F)o4)cn3)c3ccccc3)C2)C1` [Compound 3107, N-((5-(5-(difluoromethyl)-1,3,4-oxadiazol-2-yl)pyridin-2-yl)methyl)-3-fluoro-N-phenyl-1′-propyl-[1,3′-biazetidine]-3-carboxamide], the 50% inhibitory concentration (IC50) in test [1] is above 50000 nM. In test [2], the “HDAC6 selectivity (fold)” value is given as 1,059 fold and the concentration for half-maximal inhibition (IC50) stood at 47.2 nM.
Turning to `CCCCN1CC(N2CC(F)(C(=O)N(Cc3ccc(-c4nnc(C(F)F)o4)cn3)c3ccccc3)C2)C1` [Compound 3108, 1′-butyl-N-((5-(5-(difluoromethyl)-1,3,4-oxadiazol-2-yl)pyridin-2-yl)methyl)-3-fluoro-N-phenyl-[1,3′-biazetidine]-3-carboxamide], in test [1], the 50% inhibitory concentration (IC50) is above 50000 nM. In test [2], the “HDAC6 selectivity (fold)” value is 1,827 fold and the half-inhibitory concentration (IC50) stood at 27.4 nM.
Regarding `CN1CCC(N2CC(F)(C(=O)N(Cc3ccc(-c4nnc(C(F)F)o4)cn3)c3ccccc3)C2)CC1` [Compound 3110, N-((5-(5-(difluoromethyl)-1,3,4-oxadiazol-2-yl)pyridin-2-yl)methyl)-3-fluoro-1-(1-methylpiperidin-4-yl)-N-phenylazetidine-3-carboxamide], the half-maximal inhibitory concentration (IC50) in test [1] was above 50000 nM. Moreover, in test [2], the “HDAC6 selectivity (fold)” value was 1,170 fold and the IC50 is 42.7 nM.
Turning to `CCN1CCC(N2CC(F)(C(=O)N(Cc3ccc(-c4nnc(C(F)F)o4)cn3)c3ccccc3)C2)CC1` [Compound 3111, N-((5-(5-(difluoromethyl)-1,3,4-oxadiazol-2-yl)pyridin-2-yl)methyl)-1-(1-ethylpiperidin-4-yl)-3-fluoro-N-phenylazetidine-3-carboxamide], the concentration for half-maximal inhibition (IC50) in test [1] is above 50000 nM. In test [2], the “HDAC6 selectivity (fold)” value was determined as 931 fold and the IC50 worked out at 53.7 nM.
`CCCN1CCC(N2CC(F)(C(=O)N(Cc3ccc(-c4nnc(C(F)F)o4)cn3)c3ccccc3)C2)CC1` [Compound 3112, N-((5-(5-(difluoromethyl)-1,3,4-oxadiazol-2-yl)pyridin-2-yl)methyl)-3-fluoro-N-phenyl-1-(1-propylpiperidin-4-yl)azetidine-3-carboxamide]: the concentration for half-maximal inhibition (IC50) in test [1] is above 50000 nM; in test [2], 24.7 nM. The “HDAC6 selectivity (fold)” value in test [2] was 2,024 fold.
On to `CCCCN1CCC(N2CC(F)(C(=O)N(Cc3ccc(-c4nnc(C(F)F)o4)cn3)c3ccccc3)C2)CC1` [Compound 3113, 1-(1-butylpiperidin-4-yl)-N-((5-(5-(difluoromethyl)-1,3,4-oxadiazol-2-yl)pyridin-2-yl)methyl)-3-fluoro-N-phenylazetidine-3-carboxamide], for which the IC50 in test [1] was above 50000 nM. In test [2], the “HDAC6 selectivity (fold)” value is given as 1,543 fold and the IC50 stood at 32.4 nM.
Turning to `CC(C)CN1CCC(N2CC(F)(C(=O)N(Cc3ccc(-c4nnc(C(F)F)o4)cn3)c3ccccc3)C2)CC1` [Compound 3114, N-((5-(5-(difluoromethyl)-1,3,4-oxadiazol-2-yl)pyridin-2-yl)methyl)-3-fluoro-1-(1-isobutylpiperidin-4-yl)-N-phenylazetidine-3-carboxamide], in test [1], the half-maximal inhibitory concentration (IC50) was above 50000 nM. Further, in test [2], the “HDAC6 selectivity (fold)” value is given as 1,524 fold and the concentration for half-maximal inhibition (IC50) came to 32.8 nM.
For `CC(C)N1CCC(N2CC(F)(C(=O)N(Cc3ccc(-c4nnc(C(F)F)o4)cn3)c3ccccc3)C2)CC1` [Compound 3115, N-((5-(5-(difluoromethyl)-1,3,4-oxadiazol-2-yl)pyridin-2-yl)methyl)-3-fluoro-1-(1-isopropylpiperidin-4-yl)-N-phenylazetidine-3-carboxamide], the 50% inhibitory concentration (IC50) in test [1] was above 50000 nM. In test [2], the “HDAC6 selectivity (fold)” value was 2,040 fold and the IC50 came to 24.5 nM.
As to `CC(=O)N1CC(F)(C(=O)N(Cc2ccc(-c3nnc(C(F)F)o3)cn2)c2ccccc2)C1` [Compound 3152, 1-acetyl-N-((5-(5-(difluoromethyl)-1,3,4-oxadiazol-2-yl)pyridin-2-yl)methyl)-3-fluoro-N-phenylazetidine-3-carboxamide], the IC50 in test [1] was above 50000 nM; in test [2] it was 36.3 nM. Besides, the “HDAC6 selectivity (fold)” value in test [2] is 1,377 fold.
Turning to `CCC(=O)N1CC(F)(C(=O)N(Cc2ccc(-c3nnc(C(F)F)o3)cn2)c2ccccc2)C1` [Compound 3153, N-((5-(5-(difluoromethyl)-1,3,4-oxadiazol-2-yl)pyridin-2-yl)methyl)-3-fluoro-N-phenyl-1-propionylazetidine-3-carboxamide], in test [1], the IC50 was above 50000 nM. Also, in test [2], the “HDAC6 selectivity (fold)” value is 1,347 fold and the IC50 was 37.1 nM.
Turning to `CCCC(=O)N1CC(F)(C(=O)N(Cc2ccc(-c3nnc(C(F)F)o3)cn2)c2ccccc2)C1` [Compound 3154, 1-butyryl-N-((5-(5-(difluoromethyl)-1,3,4-oxadiazol-2-yl)pyridin-2-yl)methyl)-3-fluoro-N-phenylazetidine-3-carboxamide], in test [1], the IC50 was above 50000 nM. Besides, in test [2], the “HDAC6 selectivity (fold)” value is given as 1,506 fold and the IC50 amounted to 33.2 nM.
On to `CC(C)CC(=O)N1CC(F)(C(=O)N(Cc2ccc(-c3nnc(C(F)F)o3)cn2)c2ccccc2)C1` [Compound 3155, N-((5-(5-(difluoromethyl)-1,3,4-oxadiazol-2-yl)pyridin-2-yl)methyl)-3-fluoro-1-(3-methylbutanoyl)-N-phenylazetidine-3-carboxamide], for which the concentration for half-maximal inhibition (IC50) in test [1] was above 50000 nM. Moreover, in test [2], the “HDAC6 selectivity (fold)” value was 1,326 fold and the IC50 is 37.7 nM.
Consider `O=C(N(Cc1ccc(-c2nnc(C(F)F)o2)cn1)c1ccccc1)C1(F)CN(CC2CCCCC2)C1` [Compound 3156, 1-(cyclohexylmethyl)-N-((5-(5-(difluoromethyl)-1,3,4-oxadiazol-2-yl)pyridin-2-yl)methyl)-3-fluoro-N-phenylazetidine-3-carboxamide], for which the concentration for half-maximal inhibition (IC50) in test [1] is above 50000 nM. In test [2], the “HDAC6 selectivity (fold)” value is on record as 649 fold and the IC50 was determined as 77 nM.
Take `COCCC(=O)N1CC(F)(C(=O)N(Cc2ccc(-c3nnc(C(F)F)o3)cn2)c2ccccc2)C1` [Compound 3157, N-((5-(5-(difluoromethyl)-1,3,4-oxadiazol-2-yl)pyridin-2-yl)methyl)-3-fluoro-1-(3-methoxypropanoyl)-N-phenylazetidine-3-carboxamide]: in test [1], the IC50 was above 50000 nM. For the same compound, in test [2], the “HDAC6 selectivity (fold)” value is listed as 941 fold and the IC50 was 53.1 nM.
Regarding `O=C(C1CC1)N1CC(F)(C(=O)N(Cc2ccc(-c3nnc(C(F)F)o3)cn2)c2ccccc2)C1` [Compound 3158, 1-(cyclopropanecarbonyl)-N-((5-(5-(difluoromethyl)-1,3,4-oxadiazol-2-yl)pyridin-2-yl)methyl)-3-fluoro-N-phenylazetidine-3-carboxamide], the IC50 was above 50000 nM in test [1] and 35.7 nM in test [2]. For the same compound, the “HDAC6 selectivity (fold)” value in test [2] was 1,400 fold.
Consider `O=C(C1CCC1)N1CC(F)(C(=O)N(Cc2ccc(-c3nnc(C(F)F)o3)cn2)c2ccccc2)C1` [Compound 3159, 1-(cyclobutanecarbonyl)-N-((5-(5-(difluoromethyl)-1,3,4-oxadiazol-2-yl)pyridin-2-yl)methyl)-3-fluoro-N-phenylazetidine-3-carboxamide], for which, in test [1], the IC50 is above 50000 nM. In test [2], the “HDAC6 selectivity (fold)” value was 1,650 fold and the IC50 was found to be 30.3 nM.
For `O=C(C1CCCC1)N1CC(F)(C(=O)N(Cc2ccc(-c3nnc(C(F)F)o3)cn2)c2ccccc2)C1` [Compound 3160, 1-(cyclopentanecarbonyl)-N-((5-(5-(difluoromethyl)-1,3,4-oxadiazol-2-yl)pyridin-2-yl)methyl)-3-fluoro-N-phenylazetidine-3-carboxamide], the values for the half-inhibitory concentration (IC50) in test [1] and in test [2] were above 50000 nM and 34.1 nM, respectively. Further, in test [2], the “HDAC6 selectivity (fold)” value is on record as 1,466 fold.
